Assay results as given in patent US20170050957A1, “4-AMINO-6-(HETEROCYCLIC)PICOLINATES AND 6-AMINO-2-(HETEROCYCLIC)PYRIMIDINE-4-CARBOXYLATES AND THEIR USE AS HERBICIDES” (Dow AgroSciences LLC, priority 2013, published 2017).
Read-outs that look alike come from different tables or passages of the source.

Experiments:
[1] = test system: Key Broadleaf Weed and Crop Species; experiment: Post-emergent Test II herbicidal activity (Table 15); assay type: in vivo; conditions: post-emergence, 336 h, 14 d; for pest or weed control at 35 g/ha: 35 g ai/ha; for pest or weed control at 70 g/ha: 70 g ai/ha; for pest or weed control at 140 g/ha: 140 g ai/ha
In short: (§1)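 Plants grown in greenhouse (~15 h photoperiod, 23-29 °C day, 22-28 °C night) to first or second true leaf stage, then sprayed post-emergence at 187 L/ha with a high rate and 1/2×, 1/4×, 1/8× and 1/16× dilutions. Injury scored visually after 14 d, 0-100% versus untreated plants.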

[2] = test system: Key Grass and Sedge Weeds as well as Grass Crops; experiment: Post-emergent Test II herbicidal activity (Table 16); assay type: in vivo; conditions: post-emergence, 336 h, 14 d; for pest or weed control at 35 g/ha: 35 g ai/ha; for pest or weed control at 70 g/ha: 70 g ai/ha; for pest or weed control at 140 g/ha: 140 g ai/ha
In short: as §1

[3] = Abutilon theophrasti, velvetleaf (Abutilon theophrasti), read-out: Visual Growth Reduction (%) 14 Days After Application, ABUTH
[4] = Amaranthus retroflexus, redroot pigweed (Amaranthus retroflexus), read-out: Visual Growth Reduction (%) 14 Days After Application, AMARE
[5] = Brassica napus, oilseed rape, canola (Brassica napus), read-out: Visual Growth Reduction (%) 14 Days After Application, BRSNN
[6] = Chenopodium album, lambsquarters (Chenopodium album), read-out: Visual Growth Reduction (%) 14 Days After Application, CHEAL
[7] = Euphorbia heterophylla, wild poinsettia (Euphorbia heterophylla), read-out: Visual Growth Reduction (%) 14 Days After Application, EPHHL
[8] = Helianthus annuus, sunflower (Helianthus annuus), read-out: Visual Growth Reduction (%) 14 Days After Application, HELAN
[9] = Cyperus esculentus, yellow nutsedge (Cyperus esculentus), read-out: Visual Growth Reduction (%) 14 Days After Application, CYPES
[10] = Echinochloa crus-galli, barnyardgrass (Echinochloa crus-galli), read-out: Visual Growth Reduction (%) 14 Days After Application, ECHCG
[11] = Oryza sativa, rice (Oryza sativa), read-out: Visual Growth Reduction (%) 14 Days After Application, ORYSA
[12] = Setaria faberi, giant foxtail (Setaria faberi), read-out: Visual Growth Reduction (%) 14 Days After Application, SETFA
[13] = Triticum aestivum, wheat, spring (Triticum aestivum), read-out: Visual Growth Reduction (%) 14 Days After Application, TRZAS
[14] = Zea mays, maize, corn (Zea mays), read-out: Visual Growth Reduction (%) 14 Days After Application, ZEAMX

melting point [°C]	SMILES	pest or weed control at 35 g/ha [1, 3] [%]	pest or weed control at 70 g/ha [1, 3] [%]	pest or weed control at 140 g/ha [1, 3] [%]	pest or weed control at 35 g/ha [1, 4] [%]	pest or weed control at 70 g/ha [1, 4] [%]	pest or weed control at 140 g/ha [1, 4] [%]	pest or weed control at 35 g/ha [1, 5] [%]	pest or weed control at 70 g/ha [1, 5] [%]	pest or weed control at 140 g/ha [1, 5] [%]	pest or weed control at 35 g/ha [1, 6] [%]	pest or weed control at 70 g/ha [1, 6] [%]	pest or weed control at 140 g/ha [1, 6] [%]	pest or weed control at 35 g/ha [1, 7] [%]	pest or weed control at 70 g/ha [1, 7] [%]	pest or weed control at 140 g/ha [1, 7] [%]	pest or weed control at 35 g/ha [1, 8] [%]	pest or weed control at 70 g/ha [1, 8] [%]	pest or weed control at 140 g/ha [1, 8] [%]	pest or weed control at 35 g/ha [2, 9] [%]	also measured
180 to 182	Nc1c(F)c(-c2ccc3[nH]ccc3c2)nc(C(=O)O)c1Cl [Compound 1.04]	45 to 59	0 to 29	0 to 29	60 to 74	60 to 74	60 to 74	30 to 44	45 to 59	45 to 59	45 to 59	60 to 74	60 to 74	95 to 100	95 to 100	95 to 100	45 to 59	45 to 59	85 to 94	0 to 29	pest or weed control at 70 g/ha [2, 9]: 0 to 29%; pest or weed control at 140 g/ha [2, 9]: 0 to 29%; pest or weed control at 35 g/ha [2, 10]: 0 to 29%; pest or weed control at 140 g/ha [2, 10]: 85 to 94%; pest or weed control at 35 g/ha [2, 11]: 0 to 29%; pest or weed control at 70 g/ha [2, 11]: 0 to 29%; pest or weed control at 140 g/ha [2, 11]: 0 to 29%; pest or weed control at 35 g/ha [2, 12]: 0 to 29%; pest or weed control at 70 g/ha [2, 12]: 0 to 29%; pest or weed control at 140 g/ha [2, 12]: 0 to 29%; pest or weed control at 35 g/ha [2, 13]: 0 to 29%; pest or weed control at 70 g/ha [2, 13]: 0 to 29%; pest or weed control at 140 g/ha [2, 13]: 0 to 29%; pest or weed control at 35 g/ha [2, 14]: 0 to 29%; pest or weed control at 70 g/ha [2, 14]: 0 to 29%; pest or weed control at 140 g/ha [2, 14]: 0 to 29%
174 to 179	COC(=O)c1nc(-c2ccc3cc[nH]c3c2)c(Cl)c(N)c1Cl [Compound 1.05]	45 to 59	95 to 100	85 to 94	60 to 74	75 to 84	95 to 100	30 to 44	45 to 59	60 to 74	85 to 94	95 to 100	95 to 100	30 to 44	30 to 44	45 to 59	95 to 100	95 to 100	95 to 100	0 to 29	pest or weed control at 70 g/ha [2, 9]: 0 to 29%; pest or weed control at 140 g/ha [2, 9]: 0 to 29%; pest or weed control at 35 g/ha [2, 10]: 0 to 29%; pest or weed control at 70 g/ha [2, 10]: 0 to 29%; pest or weed control at 140 g/ha [2, 10]: 60 to 74%; pest or weed control at 35 g/ha [2, 11]: 0 to 29%; pest or weed control at 70 g/ha [2, 11]: 0 to 29%; pest or weed control at 140 g/ha [2, 11]: 0 to 29%; pest or weed control at 35 g/ha [2, 12]: 30 to 44%; pest or weed control at 70 g/ha [2, 12]: 45 to 59%; pest or weed control at 140 g/ha [2, 12]: 60 to 74%; pest or weed control at 35 g/ha [2, 13]: 0 to 29%; pest or weed control at 70 g/ha [2, 13]: 30 to 44%; pest or weed control at 140 g/ha [2, 13]: 45 to 59%; pest or weed control at 35 g/ha [2, 14]: 0 to 29%; pest or weed control at 70 g/ha [2, 14]: 30 to 44%; pest or weed control at 140 g/ha [2, 14]: 45 to 59%
